Measurements from patent publication US20220008359A1, “COMBINATION ANTI-CANCER PRODUCTS AND METHODS” (priority 2020, published 2022).
Marks after values point to notes of the source that are not given here.

Tested on: H1975 cells (wild type sensitive)
Experiment: In-cell immunostaining of protein expression and phosphorylation, H1975 wild type cells
Format: cell-based, human
Parameters: HDAC 1 expression / HDAC 2 expression / HDAC 3 expression / HDAC 4 expression / HDAC 5 expression / HDAC 6 expression / HDAC 7 expression / HDAC 8 expression / HDAC 9 expression / HDAC 10 expression / HDAC 11 expression: scale not given here
Details: 6 h
Method: […] Cells were fixed in place 6 hours after treatment and immunostaining of single cells performed to determine the levels of each protein/phosphor-protein (n=3+/−SD). * p<0.05 less than vehicle control; # p<0.05 greater than vehicle control.
Assessments of protein expression and protein phosphorylation. Multi-channel fluorescence HCS microscopes perform true in-cell western blotting. Three independent cultures derived from three thawed vials of cells of a tumor were sub-cultured into individual 96-well plates. Twenty-four hours after plating, the cells are transfected with a control plasmid or a control siRNA, or with an empty vector plasmid or with plasmids to express various proteins. After another 24 hours, the cells are ready for drug exposure(s). At various time-points after the initiation of drug exposure, cells are fixed in place using paraformaldehyde and using Triton X100 for permeabilization. Standard immunofluorescent blocking procedures are employed, followed by incubation of different wells with a variety of validated primary antibodies and subsequently validated fluorescent-tagged secondary antibodies are added to each well. The microscope determines the background fluorescence in the well and in parallel randomly determines the mean fluorescent intensity of 100 cells per well.

[1] = 1975 WT, GZ17-6.02 2 mM final curcumin, pemetrexed 500 nM
[2] = 1975 WT, GZ17-6.02 2 mM final curcumin, pemetrexed 500 nM, vehicle 100%

`Nc1nc2[nH]cc(CCc3ccc(C(=O)N[C@@H](CCC(=O)O)C(=O)O)cc3)c2c(=O)[nH]1` [PEM, Pemetrexed] was tested, and the ERK2 expression [1] was 100, the “HDAC 1 expression” value [1] was 99 and the “HDAC 2 expression” value [1] was 93. For the same compound, the “HDAC 3 expression” value [1] was 100, the “HDAC 4 expression” value [1] was 100 and the “HDAC 5 expression” value [1] was 98. For the same compound, the “HDAC 6 expression” value [1] was 88, the “HDAC 7 expression” value [1] was 98 and the “HDAC 8 expression” value [1] was 101. For the same compound, the “HDAC 9 expression” value [1] was 99, the “HDAC 10 expression” value [1] was 102 and the “HDAC 11 expression” value [1] was 101. It also gave an ATG5 [2] of 109%, a Beclin1 [2] of 112% and a CD95 [2] of 100%. The CHOP [2] was 107%, the ERBB1 [2] was 101% and the ERBB2 [2] was 101%. It also gave an ERBB3 [2] of 99%, an ERBB4 [2] of 100% and an ERK2 [2] of 99%. For the same compound, the FAS-L [2] was 108%, the GRP78 [2] was 112% and the JAK2 [2] was 102%. The “P-AKT T308” value [2] was 87* %, the “P-AMPKα T172” value [2] was 105% and the “P-ATG13 S318” value [2] was 104%. For the same compound, the “P-ATM S1980” value [2] was 108%, the P-B1 [2] was 88% and the P-B2 [2] was 96%. For the same compound, the P-B3 [2] was 95%, the P-B4 [2] was 100% and the P-ERK1/2 [2] was 95%. For the same compound, the P-JAK2 [2] was 91%, the “P-NFκB S536” value [2] was 85* % and the P-PDGFRβ [2] was 90%. For the same compound, the “P-PERK T980” value [2] was 103%, the “P-SRC Y416” value [2] was 94% and the “P-SRC Y527” value [2] was 109%. The “P-STAT3 Y705” value [2] was 88%, the “P-STAT5 Y694” value [2] was 91% and the “P-ULK1 S317” value [2] was 105%. The “P-ULK1 S757” value [2] was 91%, the P-c-MET [2] was 94% and the P-c-MT [2] was 94%. For the same compound, the “P-eIF2α S51” value [2] was 103%, the “P-mTOR S2448” value [2] was 96% and the “P-mTOR S2481” value [2] was 91%. The PDGFRβ [2] was 100%, the PP1 [2] was 109% and the c-KIT [2] was 99%. The c-MET [2] was 100%, the “p70 S6K” value [2] was 101% and the “p70 S6K T389” value [2] was 99%. For the same compound, the BCL-XL expression (H1975 WT, VEH = 100) was 87*, the ERK2 expression (H1975 WT, VEH = 100) was 100 and the FLIP-s expression (H1975 WT, VEH = 100) was 101. For the same compound, the MCL-1 expression (H1975 WT, VEH = 100) was 81*.
